ChEMBL document CHEMBL4813945, “Discovery and development of novel pyrimidine and pyrazolo/thieno-fused pyrimidine derivatives as potent and orally active inducible nitric oxide synthase dimerization inhibitor with efficacy for arthritis” (Eur J Med Chem, 2021)

Columns and labels:
[1] = Metabolic stability in rat hepatocytes assessed as intrinsic clearance incubated up to 120 mins measured per million cells by LC-MS/MS analysis; type: ADME, cell-based, Hepatocyte; details: read-out: CLH
[2] = Metabolic stability in rat hepatocytes assessed as half life measured upto 120 mins by LC-MS/MS analysis; type: ADME, cell-based, Hepatocyte
[3] = Metabolic stability in human hepatocytes assessed as half life measured upto 120 mins by LC-MS/MS analysis; type: ADME, cell-based, Hepatocyte
[4] = Metabolic stability in human hepatocytes assessed as clearance incubated up to 120 mins measured per million cells by LC-MS/MS analysis; type: ADME, cell-based, Hepatocyte; details: read-out: CLH
RAW264.7 [5] = experiment: Inhibition of LPS-induced NO release in mouse RAW264.7 cells preincubated for 1 hrs followed by LPS stimulation and measured after 24 hrs by Griess reagent based assay; type: functional, cell-based
[6] = target: T1, Nitric oxide synthase, inducible (Mus musculus, UniProt P29477); experiment: Inhibition of LPS induced NO-dependent iNOS activity in mouse RAW 264.7 cells preincubated for 1 hrs followed by LPS stimulation and measured after 24 hrs by Griess reagent based assay; type: cell-based, RAW264.7
T1 sequence (P29477 whole entry): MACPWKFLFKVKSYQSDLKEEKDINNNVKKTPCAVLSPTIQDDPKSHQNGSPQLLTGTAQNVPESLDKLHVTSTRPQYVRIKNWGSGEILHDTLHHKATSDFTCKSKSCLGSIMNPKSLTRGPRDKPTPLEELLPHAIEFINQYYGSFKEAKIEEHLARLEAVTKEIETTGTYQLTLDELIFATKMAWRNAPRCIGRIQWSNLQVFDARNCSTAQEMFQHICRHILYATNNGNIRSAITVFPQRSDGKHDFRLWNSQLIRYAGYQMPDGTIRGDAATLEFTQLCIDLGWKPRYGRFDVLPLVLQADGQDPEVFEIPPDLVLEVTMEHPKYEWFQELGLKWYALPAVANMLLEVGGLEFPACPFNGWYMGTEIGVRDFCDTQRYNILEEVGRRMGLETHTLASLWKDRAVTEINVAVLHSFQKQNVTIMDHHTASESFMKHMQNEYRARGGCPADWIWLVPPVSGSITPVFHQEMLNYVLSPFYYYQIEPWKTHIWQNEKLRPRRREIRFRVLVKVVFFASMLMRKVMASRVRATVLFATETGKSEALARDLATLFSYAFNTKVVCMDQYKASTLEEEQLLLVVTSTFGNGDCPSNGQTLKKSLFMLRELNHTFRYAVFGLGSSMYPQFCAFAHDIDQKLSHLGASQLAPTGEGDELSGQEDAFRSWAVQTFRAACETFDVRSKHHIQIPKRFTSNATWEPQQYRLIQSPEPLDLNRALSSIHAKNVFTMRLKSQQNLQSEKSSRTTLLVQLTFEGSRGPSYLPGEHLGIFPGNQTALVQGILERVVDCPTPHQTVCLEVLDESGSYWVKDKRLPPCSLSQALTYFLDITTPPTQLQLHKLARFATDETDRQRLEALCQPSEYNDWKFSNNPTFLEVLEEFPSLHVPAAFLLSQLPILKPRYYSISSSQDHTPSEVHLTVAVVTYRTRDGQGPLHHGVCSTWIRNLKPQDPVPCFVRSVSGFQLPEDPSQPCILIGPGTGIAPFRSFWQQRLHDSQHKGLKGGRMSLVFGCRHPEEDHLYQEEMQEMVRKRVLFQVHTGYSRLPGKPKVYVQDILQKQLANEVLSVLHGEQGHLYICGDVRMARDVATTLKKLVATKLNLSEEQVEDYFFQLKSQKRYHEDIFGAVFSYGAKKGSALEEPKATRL

RAW264.7 [7] = experiment: Cytotoxicity against LPS-induced mouse RAW 264.7 cells assessed as cell viability measured by MTT assay; type: cell-based
RAW264.7 [8] = experiment: Cytotoxicity against mouse RAW 264.7 cells assessed as cell viability by MTT assay; type: cell-based
RAW264.7 [9] = experiment: Cytotoxicity against mouse RAW264.7 cells at 20 uM measured after 24 hrs; type: cell-based; details: raw264.7, 24 h
RAW264.7 [10] = experiment: Antiinflammatory activity against mouse RAW264.7 cells assessed as inhibition of LPS-induced NO production at 10 uM preincubated for 1 hrs followed by LPS stimulation and measured after 24 hrs by Griess assay relative to control; type: functional; details: time 25 hrs
L02 [11] = experiment: Antiinflammatory activity against human L02 assessed as inhibition of LPS-induced NO production preincubated for 1 hrs followed by LPS stimulation and measured after 24 hrs by Griess assay relative to control; type: functional, cell-based
L02 [12] = experiment: Cytotoxicity against human L02 cells assessed as cell viability by MTT assay; type: cell-based
Cytochrome P450 1A2 = target: T2, Cytochrome P450 1A2 (Homo sapiens, UniProt P05177); experiment: Inhibition of CYP1A2 in human liver microsomes using Phenacetin as substrate measured after 20 mins by LC-MS/MS analysis; type: ADME
T2 sequence (P05177 whole entry): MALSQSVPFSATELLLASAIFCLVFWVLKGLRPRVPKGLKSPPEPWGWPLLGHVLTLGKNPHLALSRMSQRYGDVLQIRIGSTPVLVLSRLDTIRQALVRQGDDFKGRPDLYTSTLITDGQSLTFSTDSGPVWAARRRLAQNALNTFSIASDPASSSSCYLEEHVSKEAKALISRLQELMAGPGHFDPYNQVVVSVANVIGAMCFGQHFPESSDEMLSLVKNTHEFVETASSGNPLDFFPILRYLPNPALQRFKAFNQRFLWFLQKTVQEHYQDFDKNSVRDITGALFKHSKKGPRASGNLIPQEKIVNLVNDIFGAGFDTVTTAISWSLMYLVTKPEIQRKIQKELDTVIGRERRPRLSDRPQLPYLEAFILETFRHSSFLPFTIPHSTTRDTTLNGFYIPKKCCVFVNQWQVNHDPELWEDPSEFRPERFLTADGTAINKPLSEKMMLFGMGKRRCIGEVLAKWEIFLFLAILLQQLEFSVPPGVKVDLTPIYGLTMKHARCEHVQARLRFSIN

Structure (SMILES) | Activity (RAW264.7 [9]) | inhibition at 10 µM (RAW264.7 [10]) [%] | IC50 (L02 [11]) [µM] | further results
O=C(O)Cc1ccccc1Nc1c(Cl)cccc1Cl [DICLOFENAC] |  |  |  | hepatocyte CLint [1]: 50.3 µL/min/1e6 cells; half-life [2]: 13.6 min; half-life [3]: 9.1 min; hepatocyte CLint [4]: 75.8 µL/min/1e6 cells
COc1cc(/C=C/c2nc(Nc3ccc(C(F)(F)F)cc3)c3sccc3n2)cc(OC)c1OC | Non-Toxic | 55.4 | 436 | IC50 (RAW264.7 [5]): 9.36 µM; IC50 [6]: 4.2 µM; IC50 (RAW264.7 [7]): > 50 µM; IC50 (RAW264.7 [8]): > 50 µM; IC50 (L02 [12]): 436 µM
COc1ccc2c(c1)[C@]13CCCC[C@@H]1[C@H](C2)N(C)CC3 [DEXTROMETHORPHAN] |  |  |  | hepatocyte CLint [1]: 150 µL/min/1e6 cells; half-life [2]: 4.6 min; half-life [3]: 14.5 min; hepatocyte CLint [4]: 47.8 µL/min/1e6 cells
COc1ccc2[nH]c([S+]([O-])Cc3ncc(C)c(OC)c3C)nc2c1 (stereo not drawn) [OMEPRAZOLE] |  |  |  | hepatocyte CLint [1]: 51.4 µL/min/1e6 cells; half-life [2]: 13.5 min; half-life [3]: 28.2 min; hepatocyte CLint [4]: 24.6 µL/min/1e6 cells
COc1ccc(Nc2nc(/C=C/c3cc(OC)c(OC)c(OC)c3)nc3ccsc23)cc1 | Non-Toxic | 52.5 | 279 | IC50 (RAW264.7 [5]): 10.7 µM; IC50 [6]: 5.12 µM; IC50 (RAW264.7 [7]): > 50 µM; IC50 (RAW264.7 [8]): > 50 µM; IC50 (L02 [12]): 279 µM
C[C@@H]1C[C@H]2[C@@H]3CCC4=CC(=O)C=C[C@]4(C)[C@@]3(F)[C@@H](O)C[C@]2(C)[C@@]1(O)C(=O)CO [DEXAMETHASONE] |  | 51.8 | 4620 | IC50 (RAW264.7 [5]): 8.71 µM; IC50 [6]: > 10 µM; IC50 (RAW264.7 [7]): > 50 µM; IC50 (RAW264.7 [8]): > 50 µM; IC50 (L02 [12]): 4620 µM
COc1ccc(CNc2nc(/C=C/c3cc(OC)c(OC)c(OC)c3)nc3ccsc23)cc1 | Non-Toxic | 73.7 | > 1000 | IC50 (RAW264.7 [5]): 7.54 µM; IC50 [6]: 3.26 µM; IC50 (RAW264.7 [7]): > 50 µM; IC50 (RAW264.7 [8]): > 50 µM; IC50 (L02 [12]): 2050 µM
COc1cc(/C=C/c2nc(NC3CC3)c3sccc3n2)cc(OC)c1OC | Non-Toxic | 90.7 | > 1000 | IC50 (RAW264.7 [5]): 6.03 µM; IC50 [6]: 4.32 µM; IC50 (RAW264.7 [7]): > 50 µM; IC50 (RAW264.7 [8]): > 50 µM; IC50 (L02 [12]): 2360 µM
COc1cc(/C=C/c2nc(NCc3ccncc3)c3sccc3n2)cc(OC)c1OC | Non-Toxic | 76 | 374 | IC50 (RAW264.7 [5]): 6.35 µM; IC50 [6]: 3.12 µM; IC50 (RAW264.7 [7]): > 50 µM; IC50 (RAW264.7 [8]): > 50 µM; IC50 (L02 [12]): 374 µM
Cc1ncc2n1-c1ccc(Cl)cc1C(c1ccccc1F)=NC2 [MIDAZOLAM] |  |  |  | hepatocyte CLint [1]: 176 µL/min/1e6 cells; half-life [2]: 3.9 min; half-life [3]: 16.3 min; hepatocyte CLint [4]: 42.6 µL/min/1e6 cells
O=c1cc(-c2ccccc2)oc2ccc3ccccc3c12 [BETA-NAPHTHOFLAVONE] |  |  |  | IC50 (Cytochrome P450 1A2): 0.0835 µM
COc1cc(/C=C/c2nc(NCc3ccccc3)c3sccc3n2)cc(OC)c1OC | Non-Toxic | 71.9 | > 1000 | IC50 (RAW264.7 [5]): 8.26 µM; IC50 [6]: 3.62 µM; IC50 (RAW264.7 [7]): > 50 µM; IC50 (RAW264.7 [8]): > 50 µM; IC50 (L02 [12]): 1800 µM
CCCc1nn(C)c2c(NCCc3cccc(Cl)c3)nc(/C=C/c3cccnc3)nc12 | Non-Toxic | 66.7 | > 1000 | 
COc1cc(/C=C/c2nc(Nc3ccc(O)cc3)c3sccc3n2)cc(OC)c1OC | Non-Toxic | 97.7 | > 1000 | IC50 (RAW264.7 [5]): 4.07 µM; IC50 [6]: 1.89 µM; IC50 (RAW264.7 [7]): > 50 µM; IC50 (RAW264.7 [8]): > 50 µM; IC50 (L02 [12]): 2300 µM
COc1cc(/C=C/c2nccc(NCCc3ccccc3)n2)cc(OC)c1OC | Non-Toxic | 85 | < 40 | 
CCOc1ccc(NC(C)=O)cc1 [PHENACETIN] |  |  |  | hepatocyte CLint [1]: 21.3 µL/min/1e6 cells; half-life [2]: 32.6 min; half-life [3]: 43.8 min; hepatocyte CLint [4]: 15.8 µL/min/1e6 cells

Structure (SMILES) | Activity (RAW264.7 [9]) | inhibition at 10 µM (RAW264.7 [10]) [%] | IC50 (L02 [11]) [µM] | further results
COc1cc(/C=C/c2nc(N(C)C)c3sccc3n2)cc(OC)c1OC | Non-Toxic | 27.2 | > 1000 | 
CCCc1nn(C)c2c(NCCc3cccc(Cl)c3)nc(CCc3cccnc3)nc12 | Non-Toxic | 37.5 | 612 | 
C(=C\c1nc(Nc2ccccc2)c2sccc2n1)/c1ccccc1 | Non-Toxic | 21 | > 1000 | 
COc1cc(/C=C/c2nc(NCc3ccc(Cl)cc3)c3sccc3n2)cc(OC)c1OC | Non-Toxic | 65.5 | > 1000 | IC50 (RAW264.7 [5]): 9.05 µM; IC50 [6]: 4.23 µM; IC50 (RAW264.7 [7]): > 50 µM; IC50 (RAW264.7 [8]): > 50 µM; IC50 (L02 [12]): 4320 µM
CCCc1nn(C)c2c(NCCc3cccc(Cl)c3)nc(/C=C/c3ccc[n+]([O-])c3)nc12 | Non-Toxic | 37.5 | 162 | 
CN1CCN(c2nc(/C=C/c3ccccc3)nc3ccsc23)CC1 | Non-Toxic | 18.5 | 198 | 
COc1cc(/C=C/c2nc(N3CCN(C)CC3)c3sccc3n2)cc(OC)c1OC | Non-Toxic | 39.3 | > 1000 | 
CNc1nc(/C=C/c2ccccc2)nc2ccsc12 | Non-Toxic | 21.9 | > 1000 | 
COc1cc(/C=C/c2nc(O)nc(NC(C)C)n2)cc(OC)c1OC | Non-Toxic | 34 | < 40 | 
COc1cc(/C=C/c2nc(Nc3ccc(C)cc3)c3sccc3n2)cc(OC)c1OC | Non-Toxic | 19.2 | < 40 | 
Brc1ccc(Nc2nc(/C=C/c3ccccc3)nc3ccsc23)cc1 | Non-Toxic | 19.5 | > 1000 | 
COc1ccc(Nc2nc(/C=C/c3ccccc3)nc3ccsc23)cc1 | Non-Toxic | 21.9 | > 1000 | 
C(=C\c1ccco1)/c1nc(NC2CC2)c2sccc2n1 | Non-Toxic | 33.3 | > 1000 | 
CCCc1nn(C)c2c(N3CCOCC3)nc(/C=C/c3ccc[n+]([O-])c3)nc12 | Non-Toxic | 20.8 | 817 | 
CCCc1nn(C)c2c(N3CCOCC3)nc(/C=C/c3cccnc3)nc12 | Non-Toxic | 69.9 | 535 | 
CC(C)c1ccc(Nc2nc(/C=C/c3ccco3)nc3ccsc23)cc1 | Non-Toxic | 31.7 | > 1000 | 
